Values joined by “and” are separate entries in the source; they are usually repeats but may differ in a detail not shown here. Identical values can stand only once.
Test system: 874868-142-R-J2-PDC complex spheroids, growth % test/control
Assay: Anticancer human tumor 874868-142-R-J2-PDC patient-derived head and neck squamous carcinoma cell line growth inhibition [CLK]
Settings: for viability, T/C: stronger effect = lower value
Method in brief: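 Multi-cell-type spheroids combined patient-derived tumor cells with HUVEC endothelial cells and human mesenchymal stem cells. Paired agents were dosed in half-log steps down from about clinical Cmax, or from 10 microM where Cmax was unknown.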

[1] = curve of first compound, second compound 0.0316 µM
[2] = curve of first compound, second compound 0.1 µM
[3] = curve of first compound, second compound 0.316 µM
[4] = curve of first compound, second compound 1 µM
[5] = curve of first compound, second compound 3.16 µM
[6] = curve of first compound, second compound 10 µM
[7] = second compound 0.0316 µM, first compound 0.0316 µM
[8] = second compound 0.0316 µM, first compound 0.1 µM
[9] = second compound 0.0316 µM, first compound 0.316 µM
[10] = second compound 0.0316 µM, first compound 1 µM
[11] = second compound 0.0316 µM, first compound 3.16 µM
[12] = second compound 0.0316 µM, first compound 10 µM
[13] = second compound 0.1 µM, first compound 0.0316 µM
[14] = second compound 0.1 µM, first compound 0.1 µM
[15] = second compound 0.1 µM, first compound 0.316 µM
[16] = second compound 0.1 µM, first compound 1 µM
[17] = second compound 0.1 µM, first compound 3.16 µM
[18] = second compound 0.1 µM, first compound 10 µM
[19] = second compound 0.316 µM, first compound 0.0316 µM
[20] = second compound 0.316 µM, first compound 0.1 µM
[21] = second compound 0.316 µM, first compound 0.316 µM
[22] = second compound 0.316 µM, first compound 1 µM
[23] = second compound 0.316 µM, first compound 3.16 µM
[24] = second compound 0.316 µM, first compound 10 µM
[25] = second compound 1 µM, first compound 0.0316 µM
[26] = second compound 1 µM, first compound 0.1 µM
[27] = second compound 1 µM, first compound 0.316 µM
[28] = second compound 1 µM, first compound 1 µM
[29] = second compound 1 µM, first compound 3.16 µM
[30] = second compound 1 µM, first compound 10 µM
[31] = second compound 3.16 µM, first compound 0.0316 µM
[32] = second compound 3.16 µM, first compound 0.1 µM
[33] = second compound 3.16 µM, first compound 0.316 µM
[34] = second compound 3.16 µM, first compound 1 µM
[35] = second compound 3.16 µM, first compound 3.16 µM
[36] = second compound 3.16 µM, first compound 10 µM
[37] = second compound 10 µM, first compound 0.0316 µM
[38] = second compound 10 µM, first compound 0.1 µM
[39] = second compound 10 µM, first compound 0.316 µM
[40] = second compound 10 µM, first compound 1 µM
[41] = second compound 10 µM, first compound 3.16 µM
[42] = second compound 10 µM, first compound 10 µM
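Note: spheroids exposed to the compounds for 7 days.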
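Throughout, for viability, T/C: 100% = DMSO vehicle control viability.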

With `C=C(F)C(=O)N1CCN(c2nc(OCC3CCCN3C)nc3c2CCN(c2cccc4cccc(Cl)c24)C3)CC1CC#N` (stereo not drawn) + CNC(=O)c1ccc(Nc2nc(OC3CCCC3)c3c(-c4ccc5nc(C)oc5c4)c[nH]c3n2)c(OC)c1 the IC50 [1] was 3460 nM, the IC50 [2] was 3370 nM and the IC50 [3] was < 31.6 nM. For the same molecule, the IC50 [4] was < 31.6 nM, the IC50 [5] was < 31.6 nM and the IC50 [6] was < 31.6 nM. For the same molecule, the viability, T/C [7] was 91.7%, the viability, T/C [8] was 70.4% and the viability, T/C [9] was 89.3%. The viability, T/C [10] was 68.4%, the viability, T/C [11] was 56.8% and the viability, T/C [12] was 0.28%. For the same molecule, the viability, T/C [13] was 71.2%, the viability, T/C [14] was 68.8% and the viability, T/C [15] was 65.9%. The viability, T/C [16] was 61.6%, the viability, T/C [17] was 54.6% and the viability, T/C [18] was 0.63%. It also gave a viability, T/C [19] of 50.5%, a viability, T/C [20] of 49.2% and a viability, T/C [21] of 47.6%. For the same molecule, the viability, T/C [22] was 43.8%, the viability, T/C [23] was 38.5% and the viability, T/C [24] was 1.18%. The viability, T/C [25] was 44.4%, the viability, T/C [26] was 33% and the viability, T/C [27] was 36.7%. The viability, T/C [28] was 38.5%, the viability, T/C [29] was 35.2% and the viability, T/C [30] was 0.25%. The viability, T/C [31] was 37.5%, the viability, T/C [32] was 41.8% and the viability, T/C [33] was 31%. It also gave a viability, T/C [34] of 38%, a viability, T/C [35] of 32.2% and a viability, T/C [36] of 7.83%. It also gave a viability, T/C [37] of 36.1%, a viability, T/C [38] of 35.1% and a viability, T/C [39] of 38.1%. For the same molecule, the viability, T/C [40] was 39.1%, the viability, T/C [41] was 31.1% and the viability, T/C [42] was 3.95%.

`C=CC(=O)N1CCN(c2nc(=O)n(-c3c(C)ccnc3C(C)C)c3nc(-c4c(O)cccc4F)c(F)cc23)C(C)C1` (stereo not drawn) was tested, and the viability, T/C (compound 0.0316 µM) was 109% and 92.4%, the viability, T/C (compound 0.1 µM) was 84.9% and 96% and the viability, T/C (compound 0.316 µM) was 109% and 104%. The viability, T/C (compound 1 µM) was 119% and 104%, the viability, T/C (compound 3.16 µM) was 133% and 131% and the viability, T/C (compound 10 µM) was 114% and 88.2%. For the same molecule, the IC50 (curve of compound) was > 10000 nM.

`CC(=O)O[C@H]1C(=O)[C@@]2(C)[C@H]([C@H](OC(=O)c3ccccc3)[C@]3(O)C[C@H](OC(=O)[C@H](O)[C@@H](NC(=O)c4ccccc4)c4ccccc4)C(C)=C1C3(C)C)[C@]1(OC(C)=O)CO[C@@H]1C[C@@H]2O` + CNC(=O)c1ccc(Nc2nc(OC3CCCC3)c3c(-c4ccc5nc(C)oc5c4)c[nH]c3n2)c(OC)c1 was tested, and the IC50 [1] was < 31.6 nM, the IC50 [2] was < 31.6 nM and the IC50 [3] was > 10000 nM. The IC50 [4] was < 31.6 nM, the IC50 [5] was < 31.6 nM and the IC50 [6] was < 31.6 nM. For the same molecule, the viability, T/C [7] was 47.4%, the viability, T/C [8] was 33.5% and the viability, T/C [9] was 39.4%. For the same molecule, the viability, T/C [10] was 41.9%, the viability, T/C [11] was 48.9% and the viability, T/C [12] was 66.2%. For the same molecule, the viability, T/C [13] was 53.9%, the viability, T/C [14] was 43.9% and the viability, T/C [15] was 50%. The viability, T/C [16] was 55.7%, the viability, T/C [17] was 62.7% and the viability, T/C [18] was 66.5%. The viability, T/C [19] was 54.3%, the viability, T/C [20] was 65.1% and the viability, T/C [21] was 72.6%. The viability, T/C [22] was 66.5%, the viability, T/C [23] was 77.6% and the viability, T/C [24] was 70.1%. It also gave a viability, T/C [25] of 47.1%, a viability, T/C [26] of 49.9% and a viability, T/C [27] of 53%. The viability, T/C [28] was 62.3%, the viability, T/C [29] was 52.6% and the viability, T/C [30] was 61.9%. For the same molecule, the viability, T/C [31] was 47.8%, the viability, T/C [32] was 45.7% and the viability, T/C [33] was 52.4%. It also gave a viability, T/C [34] of 51%, a viability, T/C [35] of 57.5% and a viability, T/C [36] of 64.3%. The viability, T/C [37] was 43.7%, the viability, T/C [38] was 53% and the viability, T/C [39] was 58.3%. It also gave a viability, T/C [40] of 52.4%, a viability, T/C [41] of 57.6% and a viability, T/C [42] of 50.5%.

`CN1CCN(c2cc(C(=O)Nc3cc4cc(-c5cnn(C)c5)ccc4cn3)ccn2)CC1` was tested, and the viability, T/C (compound 0.0316 µM) was 92.8% [middle of 12 runs], the viability, T/C (compound 0.1 µM) was 75.6% [middle of 12 runs] and the viability, T/C (compound 0.316 µM) was 19.5% [middle of 12 runs]. The viability, T/C (compound 1 µM) was 2.43% [middle of 12 runs], the viability, T/C (compound 3.16 µM) was 0.92% [middle of 10 runs] and the viability, T/C (compound 10 µM) was 0.22% [middle of 9 runs]. For the same molecule, the IC50 (compound alone, run of 09/18/2023) was 168 nM [middle of 10 runs].
